Measured values from patent publication US8895504B2, “Amylin derivatives” (priority 2008, dated 2014).
*1 amine or outer side, *2 acyl side, *3 side chain or, on linkers, in order; H or OH if unused. Where a SMILES comes first, the peptide text is derived from it. Bridges are numbered along the chain shown (N, C = ends). The star is where a group is joined. C20 diacid = O=C(O)CCCCCCCCCCCCCCCCCCC(=O)*; C18 diacid = O=C(O)CCCCCCCCCCCCCCCCC(=O)*; γGlu = O=C(O)[C@H](CCC(=O)[*:2])N[*:1]; Trx = NC[C@H]1CC[C@H](C(=O)O)CC1; AEEA = NCCOCCOCC(=O)O

biological target: T1, Amylin 3(a) receptor (human calcitonin receptor (CTa) and RAMP-3) (Homo sapiens, UniProt O60896+P30988); assay: Luciferase assay (III), BHK Amylin 3(a)//CRE-luc cells; format: cell-based; conditions: BHK cells with Amylin 3(a) receptor and CRE luciferase reporter, 4 hours incubation; read-out: Potency Luciferase
T1 construct: expressed in transfected cells; host or cells: BHK570 cells, stably transfected with a CRE-luciferase reporter
T1 sequence (O60896 24-148): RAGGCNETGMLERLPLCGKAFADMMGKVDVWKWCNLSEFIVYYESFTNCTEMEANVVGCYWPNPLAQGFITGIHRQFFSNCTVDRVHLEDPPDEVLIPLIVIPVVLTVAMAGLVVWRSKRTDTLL
T1 sequence (P30988 25-474): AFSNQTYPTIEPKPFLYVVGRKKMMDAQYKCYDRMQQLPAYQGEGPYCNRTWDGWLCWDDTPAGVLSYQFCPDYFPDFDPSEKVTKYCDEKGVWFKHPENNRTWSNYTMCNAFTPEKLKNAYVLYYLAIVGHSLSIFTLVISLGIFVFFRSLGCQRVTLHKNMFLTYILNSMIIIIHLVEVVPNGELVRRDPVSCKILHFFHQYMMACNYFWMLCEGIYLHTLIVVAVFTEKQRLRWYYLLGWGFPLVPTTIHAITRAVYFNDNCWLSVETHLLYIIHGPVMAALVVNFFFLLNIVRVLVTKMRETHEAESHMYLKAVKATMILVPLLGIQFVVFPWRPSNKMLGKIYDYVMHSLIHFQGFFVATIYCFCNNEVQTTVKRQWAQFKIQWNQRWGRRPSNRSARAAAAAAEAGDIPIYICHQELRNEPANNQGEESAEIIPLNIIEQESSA
Procedure, shortened: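 Read-out is CRE-driven luciferase luminescence, taken 30 min after LucLite addition at room temperature. Compounds were incubated 4 h at 37° C in assay medium (10% FBS, 10 mM Hepes, pH 7,4). The cell line is BHK570 co-transfected with human calcitonin receptor CTa and RAMP-3, seeded overnight before use.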

SMILES | EC50 [nM]
CC[C@H](C)[C@H](NC(=O)[C@@H]1CCCN1C(=O)CNC(=O)[C@H](Cc1ccccc1)NC(=O)[C@H](CC(N)=O)NC(=O)[C@H](CC(N)=O)NC(=O)[C@H](CO)NC(=O)[C@H](CO)NC(=O)[C@H](Cc1c[nH]cn1)NC(=O)[C@H](Cc1c[nH]cn1)NC(=O)[C@H](CC(C)C)NC(=O)[C@H](Cc1ccccc1)NC(=O)[C@H](CC(N)=O)NC(=O)[C@H](C)NC(=O)[C@H](CC(C)C)NC(=O)[C@H](CCCNC(=N)N)NC(=O)[C@H](CCC(N)=O)NC(=O)[C@@H](NC(=O)[C@H](C)NC(=O)[C@@H]1CSSC[C@H](NC(=O)COCCOCCNC(=O)COCCOCCNC(=O)CC[C@H](NC(=O)CCCCCCCCCCCCCCCCC(=O)O)C(=O)O)C(=O)N[C@@H](CC(N)=O)C(=O)N[C@@H]([C@@H](C)O)C(=O)N[C@@H](C)C(=O)N[C@@H]([C@@H](C)O)C(=O)N1)[C@@H](C)O)C(=O)N[C@@H](CC(C)C)C(=O)N1CCC[C@H]1C(=O)N1CCC[C@H]1C(=O)N[C@H](C(=O)N[C@@H](CC(N)=O)C(=O)N[C@H](C(=O)NCC(=O)N[C@@H](CO)C(=O)N[C@@H](CC(N)=O)C(=O)N[C@H](C(=O)N[C@@H](Cc1ccc(O)cc1)C(N)=O)[C@@H](C)O)C(C)C)[C@@H](C)O [Example 62, N-alpha-[2-(2-{2-[2-(2-{2-[(S)-4-Carboxy-4-(17-carboxyheptadecanoylamino)butyrylamino]ethoxy}ethoxy)acetylamino]ethoxy}ethoxy)acetyl][His17]-pramlintide (2-37)] ({C18 diacid-γGlu-AEEA-AEEA}-CNTATCATQRLANFLHHSSNNFGPILPPTNVGSNTY-NH2; disulfide 1-6) | 0.04
CC[C@H](C)[C@H](NC(=O)[C@@H]1CCCN1C(=O)CNC(=O)[C@H](Cc1ccccc1)NC(=O)[C@H](CC(N)=O)NC(=O)[C@H](CC(N)=O)NC(=O)[C@H](CO)NC(=O)[C@H](CO)NC(=O)[C@H](Cc1c[nH]cn1)NC(=O)[C@H](CCCNC(=N)N)NC(=O)[C@H](CC(C)C)NC(=O)[C@H](Cc1ccccc1)NC(=O)[C@H](CC(N)=O)NC(=O)[C@H](C)NC(=O)[C@H](CC(C)C)NC(=O)[C@H](CCCNC(=N)N)NC(=O)[C@H](CCC(N)=O)NC(=O)[C@@H](NC(=O)[C@H](C)NC(=O)[C@@H]1CSSC[C@H](NC(=O)[C@H](CCCNC(=N)N)NC(=O)[C@H](Cc2c[nH]cn2)NC(=O)[C@H](Cc2c[nH]cn2)NC(=O)[C@H](CCC(=O)O)NC(=O)CC[C@H](NC(=O)CCCCCCCCCCCCCCCCCCC(=O)O)C(=O)O)C(=O)N[C@@H](CC(N)=O)C(=O)N[C@@H]([C@@H](C)O)C(=O)N[C@@H](C)C(=O)N[C@@H]([C@@H](C)O)C(=O)N1)[C@@H](C)O)C(=O)N[C@@H](CC(C)C)C(=O)N1CCC[C@H]1C(=O)N1CCC[C@H]1C(=O)N[C@H](C(=O)N[C@@H](CC(N)=O)C(=O)N[C@H](C(=O)NCC(=O)N[C@@H](CO)C(=O)N[C@@H](CC(N)=O)C(=O)N[C@H](C(=O)N[C@@H](Cc1ccc(O)cc1)C(N)=O)[C@@H](C)O)C(C)C)[C@@H](C)O [Example 58, N-alpha-[(S)-4-Carboxy-4-(19-carboxynonadecanoylamino)butyryl]-Glu-His-His-[Arg1,Arg17]-pramlintide] ({C20 diacid-γGlu}-EHHRCNTATCATQRLANFLRHSSNNFGPILPPTNVGSNTY-NH2; disulfide 5-10) | 0.2
CC[C@H](C)[C@H](NC(=O)[C@@H]1CCCN1C(=O)CNC(=O)[C@H](Cc1ccccc1)NC(=O)[C@H](CC(N)=O)NC(=O)[C@H](CC(N)=O)NC(=O)[C@H](CO)NC(=O)[C@H](CO)NC(=O)[C@H](Cc1c[nH]cn1)NC(=O)[C@H](Cc1c[nH]cn1)NC(=O)[C@H](CC(C)C)NC(=O)[C@H](Cc1ccccc1)NC(=O)[C@H](CC(N)=O)NC(=O)[C@H](C)NC(=O)[C@H](CC(C)C)NC(=O)[C@H](CCCNC(=N)N)NC(=O)[C@H](CCC(N)=O)NC(=O)[C@@H](NC(=O)[C@H](C)NC(=O)[C@@H]1CSSC[C@H](NC(=O)[C@H](CCCNC(=N)N)NC(=O)[C@H](Cc2c[nH]cn2)NC(=O)[C@H](CCCNC(=N)N)NC(=O)CC[C@H](NC(=O)CCCCCCCCCCCCCCCCCCC(=O)O)C(=O)O)C(=O)N[C@@H](CC(N)=O)C(=O)N[C@@H]([C@@H](C)O)C(=O)N[C@@H](C)C(=O)N[C@@H]([C@@H](C)O)C(=O)N1)[C@@H](C)O)C(=O)N[C@@H](CC(C)C)C(=O)N1CCC[C@H]1C(=O)N1CCC[C@H]1C(=O)N[C@H](C(=O)N[C@@H](CC(N)=O)C(=O)N[C@H](C(=O)NCC(=O)N[C@@H](CO)C(=O)N[C@@H](CC(N)=O)C(=O)N[C@H](C(=O)N[C@@H](Cc1ccc(O)cc1)C(N)=O)[C@@H](C)O)C(C)C)[C@@H](C)O [Example 70, N-alpha-[(S)-4-Carboxy-4-(19-carboxynonadecanoylamino)butyryl]-Arg-His[Arg1,His17]-pramlintide] ({C20 diacid-γGlu}-RHRCNTATCATQRLANFLHHSSNNFGPILPPTNVGSNTY-NH2; disulfide 4-9) | 0.1
CC[C@H](C)[C@H](NC(=O)[C@@H]1CCCN1C(=O)CNC(=O)[C@H](Cc1ccccc1)NC(=O)[C@H](CC(N)=O)NC(=O)[C@H](CC(N)=O)NC(=O)[C@H](CO)NC(=O)[C@H](CO)NC(=O)[C@H](Cc1c[nH]cn1)NC(=O)[C@H](Cc1c[nH]cn1)NC(=O)[C@H](CC(C)C)NC(=O)[C@H](Cc1ccccc1)NC(=O)[C@H](CC(N)=O)NC(=O)[C@H](C)NC(=O)[C@H](CC(C)C)NC(=O)[C@H](CCCNC(=N)N)NC(=O)[C@H](CCC(N)=O)NC(=O)[C@@H](NC(=O)[C@H](C)NC(=O)[C@@H]1CSSC[C@H](NC(=O)[C@H](CCCCN)NC(=O)CC[C@H](NC(=O)CCCCCCCCCCCCCCCCCCC(=O)O)C(=O)O)C(=O)N[C@@H](CC(N)=O)C(=O)N[C@@H]([C@@H](C)O)C(=O)N[C@@H](C)C(=O)N[C@@H]([C@@H](C)O)C(=O)N1)[C@@H](C)O)C(=O)N[C@@H](CC(C)C)C(=O)N1CCC[C@H]1C(=O)N1CCC[C@H]1C(=O)N[C@H](C(=O)N[C@@H](CC(N)=O)C(=O)N[C@H](C(=O)NCC(=O)N[C@@H](CO)C(=O)N[C@@H](CC(N)=O)C(=O)N[C@H](C(=O)N[C@@H](Cc1ccc(O)cc1)C(N)=O)[C@@H](C)O)C(C)C)[C@@H](C)O [Example 7, N-alpha-[(S)-4-Carboxy-4-(19-carboxynonadecanoylamino)butyryl]-[His17]-pramlintide] ({C20 diacid-γGlu}-KCNTATCATQRLANFLHHSSNNFGPILPPTNVGSNTY-NH2; disulfide 2-7) | 0.2
CC[C@H](C)[C@H](NC(=O)[C@@H]1CCCN1C(=O)CNC(=O)[C@H](Cc1ccccc1)NC(=O)[C@H](CC(N)=O)NC(=O)[C@H](CC(N)=O)NC(=O)[C@H](CO)NC(=O)[C@H](CO)NC(=O)[C@H](Cc1c[nH]cn1)NC(=O)[C@@H]1CCCN1C(=O)[C@H](CC(C)C)NC(=O)[C@H](Cc1ccccc1)NC(=O)[C@H](CC(N)=O)NC(=O)[C@H](C)NC(=O)[C@H](CC(C)C)NC(=O)[C@H](CCCNC(=N)N)NC(=O)[C@H](CCC(N)=O)NC(=O)[C@@H](NC(=O)[C@H](C)NC(=O)[C@@H]1CSSC[C@H](NC(=O)CC[C@H](NC(=O)CCCCCCCCCCCCCCCCCCC(=O)O)C(=O)O)C(=O)N[C@@H](CC(N)=O)C(=O)N[C@@H]([C@@H](C)O)C(=O)N[C@@H](C)C(=O)N[C@@H]([C@@H](C)O)C(=O)N1)[C@@H](C)O)C(=O)N[C@@H](CC(C)C)C(=O)N1CCC[C@H]1C(=O)N1CCC[C@H]1C(=O)N[C@H](C(=O)N[C@@H](CC(N)=O)C(=O)N[C@H](C(=O)NCC(=O)N[C@@H](CO)C(=O)N[C@@H](CC(N)=O)C(=O)N[C@H](C(=O)N[C@@H](Cc1ccc(O)cc1)C(N)=O)[C@@H](C)O)C(C)C)[C@@H](C)O [Example 15, N-alpha-[(S)-4-Carboxy-4-(19-carboxynonadecanoylamino)butyryl]-[Pro17]-pramlintide (2-37)] ({C20 diacid-γGlu}-CNTATCATQRLANFLPHSSNNFGPILPPTNVGSNTY-NH2; disulfide 1-6) | 8

same assay, conditions: Potency Luciferase, BHK cells with Amylin 3(a) receptor and CRE luciferase reporter, 4 hours incubation

SMILES | EC50 [nM]
CC[C@H](C)[C@H](NC(=O)[C@@H]1CCCN1C(=O)CNC(=O)[C@H](Cc1ccccc1)NC(=O)[C@H](CC(N)=O)NC(=O)[C@H](CC(N)=O)NC(=O)[C@H](CO)NC(=O)[C@H](CO)NC(=O)[C@H](Cc1c[nH]cn1)NC(=O)[C@H](Cc1c[nH]cn1)NC(=O)[C@H](CC(C)C)NC(=O)[C@H](Cc1ccccc1)NC(=O)[C@H](CC(N)=O)NC(=O)[C@H](C)NC(=O)[C@H](CC(C)C)NC(=O)[C@H](CCCNC(=N)N)NC(=O)[C@H](CCC(N)=O)NC(=O)[C@@H](NC(=O)[C@H](C)NC(=O)[C@@H]1CSSC[C@H](NC(=O)[C@H](Cc2c[nH]cn2)NC(=O)CC[C@H](NC(=O)[C@H]2CC[C@H](CNC(=O)CCCCCCCCCCCCCCCCCCC(=O)O)CC2)C(=O)O)C(=O)N[C@@H](CC(N)=O)C(=O)N[C@@H]([C@@H](C)O)C(=O)N[C@@H](C)C(=O)N[C@@H]([C@@H](C)O)C(=O)N1)[C@@H](C)O)C(=O)N[C@@H](CC(C)C)C(=O)N1CCC[C@H]1C(=O)N1CCC[C@H]1C(=O)N[C@H](C(=O)N[C@@H](CC(N)=O)C(=O)N[C@H](C(=O)NCC(=O)N[C@@H](CO)C(=O)N[C@@H](CC(N)=O)C(=O)N[C@H](C(=O)N[C@@H](Cc1ccc(O)cc1)C(N)=O)[C@@H](C)O)C(C)C)[C@@H](C)O [Example 33, N-alpha-[4-Carboxy-4-({4-[(19-carboxynonadecanoylamino)methyl]transcyclohexanecarbonyl}amino)butyryl]-[His1,His17]-pramlintide] ({C20 diacid-Trx-γGlu}-HCNTATCATQRLANFLHHSSNNFGPILPPTNVGSNTY-NH2; disulfide 2-7; C-terminus assumed) | 0.1
